# Results published in publication PMC5218480 (PLoS ONE, 2017).
# System: MV-4-11 cells
# Test: Gene expression microarray analysis (Affymetrix PrimeView) and GSEA
# Format: cell-based, human
# Parameters: RFU PODN (11730768_x_at) / Fold change /veh PODN (11730768_x_at) / RFU LINC00158 (11744669_a_at) / Fold change /veh LINC00158 (11744669_a_at) / RFU DUSP10 (11751237_a_at) / Fold change /veh DUSP10 (11751237_a_at) / RFU ID3 (11757404_x_at) / Fold change /veh ID3 (11757404_x_at) / RFU PLEKHG5 (11737974_s_at) / Fold change /veh PLEKHG5 (11737974_s_at) / RFU LRRC4B (11730491_at) / Fold change /veh LRRC4B (11730491_at) / RFU GIMAP4 (11747438_a_at) / Fold change /veh GIMAP4 (11747438_a_at) / RFU KRT8 (11758183_x_at) / Fold change /veh KRT8 (11758183_x_at) / RFU CNN1 (11734310_a_at) / Fold change /veh CNN1 (11734310_a_at) / RFU VPS37D (11726825_at) / Fold change /veh VPS37D (11726825_at) / RFU C10orf10 (11716522_x_at) / Fold change /veh C10orf10 (11716522_x_at) / RFU KIR2DL2 /// KIR2DL4 /// KIR2DL5A /// KIR2DL5B /// KIR2DS1 /// KIR2DS2 /// KIR2DS3 /// KIR2DS4 /// KIR3DL3 /// KIR3DL3 /// KIR3DS1 (11738374_at) / Fold change /veh KIR2DL2 /// KIR2DL4 /// KIR2DL5A /// KIR2DL5B /// KIR2DS1 /// KIR2DS2 /// KIR2DS3 /// KIR2DS4 /// KIR3DL3 /// KIR3DL3 /// KIR3DS1 (11738374_at) / RFU C1QL1 (11718748_at) / Fold change /veh C1QL1 (11718748_at) / RFU TMPRSS4 (11747572_a_at) / Fold change /veh TMPRSS4 (11747572_a_at) / RFU HAMP (11756126_x_at) / Fold change /veh HAMP (11756126_x_at) / RFU RNFT2 (11725882_a_at) / Fold change /veh RNFT2 (11725882_a_at) / RFU NR4A2 (11747474_a_at) / Fold change /veh NR4A2 (11747474_a_at) / RFU ABCC12 (11746883_a_at) / Fold change /veh ABCC12 (11746883_a_at) / RFU TMEM136 (11760407_x_at) / Fold change /veh TMEM136 (11760407_x_at) / RFU CLDN22 /// WWC2 (11732394_at) / Fold change /veh CLDN22 /// WWC2 (11732394_at) / RFU HLA-DPB1 (11760878_x_at) / Fold change /veh HLA-DPB1 (11760878_x_at) / RFU SPINT1 (11716480_a_at) / Fold change /veh SPINT1 (11716480_a_at) / RFU GAP43 (11754022_s_at) / Fold change /veh GAP43 (11754022_s_at) / RFU A4GNT (11735810_at) / Fold change /veh A4GNT (11735810_at) / RFU PRB3 (11715151_x_at) / Fold change /veh PRB3 (11715151_x_at) / RFU TUBB4B (11761932_at) / Fold change /veh TUBB4B (11761932_at) / RFU CAPN14 (11732068_a_at) / Fold change /veh CAPN14 (11732068_a_at) / RFU TMCC2 (11721928_a_at) / Fold change /veh TMCC2 (11721928_a_at) / RFU IRGQ (11745062_a_at) / Fold change /veh IRGQ (11745062_a_at) / RFU FAM174B (11720279_a_at) / Fold change /veh FAM174B (11720279_a_at) / RFU TMPRSS4 (11748680_a_at) / Fold change /veh TMPRSS4 (11748680_a_at) / RFU FAM212B (11763350_a_at) / Fold change /veh FAM212B (11763350_a_at) / RFU PLEKHG5 (11743358_a_at) / Fold change /veh PLEKHG5 (11743358_a_at) / RFU ZSCAN30 (11745921_a_at) / Fold change /veh ZSCAN30 (11745921_a_at) / RFU CMKLR1 (11741424_a_at) / Fold change /veh CMKLR1 (11741424_a_at) / RFU LOC101060620 /// MAPK8IP1 (11723275_at) / Fold change /veh LOC101060620 /// MAPK8IP1 (11723275_at) / RFU SPTSSB (11747773_x_at) / Fold change /veh SPTSSB (11747773_x_at) / RFU PRSS12 (11739890_at) / Fold change /veh PRSS12 (11739890_at) / RFU BIN1 (11741810_x_at) / Fold change /veh BIN1 (11741810_x_at) / RFU WNT11 (11732464_a_at) / Fold change /veh WNT11 (11732464_a_at) / RFU C10orf10 (11716521_a_at) / Fold change /veh C10orf10 (11716521_a_at) / RFU C5orf56 (11738089_at) / Fold change /veh C5orf56 (11738089_at) / RFU CYB561 (11721691_x_at) / Fold change /veh CYB561 (11721691_x_at) / RFU ANKRD19P (11752326_a_at) / Fold change /veh ANKRD19P (11752326_a_at) / RFU OR2T12 /// OR2T33 /// OR2T8 (11738714_s_at) / Fold change /veh OR2T12 /// OR2T33 /// OR2T8 (11738714_s_at) / RFU VCAN (11748164_a_at) / Fold change /veh VCAN (11748164_a_at) / RFU JSRP1 (11732532_at) / Fold change /veh JSRP1 (11732532_at) / RFU KRTAP10-11 (11738290_x_at) / Fold change /veh KRTAP10-11 (11738290_x_at) / RFU MYO3A (11730013_a_at) / Fold change /veh MYO3A (11730013_a_at) / RFU EBF3 (11725865_a_at) / Fold change /veh EBF3 (11725865_a_at) / RFU CAMK2N1 (11719241_x_at) / Fold change /veh CAMK2N1 (11719241_x_at) / RFU C5orf56 (11738088_a_at) / Fold change /veh C5orf56 (11738088_a_at) / RFU OLFML3 (11715873_a_at) / Fold change /veh OLFML3 (11715873_a_at) / RFU LOC100653217 /// NTM (11731650_a_at) / Fold change /veh LOC100653217 /// NTM (11731650_a_at) / RFU MAPK11 (11762145_a_at) / Fold change /veh MAPK11 (11762145_a_at) / RFU FIZ1 (11724087_x_at) / Fold change /veh FIZ1 (11724087_x_at) / RFU OASL (11726364_x_at) / Fold change /veh OASL (11726364_x_at) / RFU SOX15 (11748057_x_at) / Fold change /veh SOX15 (11748057_x_at) / RFU CD79A (11719716_a_at) / Fold change /veh CD79A (11719716_a_at) / RFU HIST1H1D (11736915_at) / Fold change /veh HIST1H1D (11736915_at) / RFU CASKIN2 (11723855_a_at) / Fold change /veh CASKIN2 (11723855_a_at) / RFU LOC730098 (11760151_x_at) / Fold change /veh LOC730098 (11760151_x_at) / RFU OR4N2 (11742367_at) / Fold change /veh OR4N2 (11742367_at) / RFU PRRT2 (11749266_a_at) / Fold change /veh PRRT2 (11749266_a_at) / RFU SNX32 (11753110_a_at) / Fold change /veh SNX32 (11753110_a_at) / RFU CDHR5 (11726645_a_at) / Fold change /veh CDHR5 (11726645_a_at) / RFU RCAN1 (11760418_a_at) / Fold change /veh RCAN1 (11760418_a_at) / RFU FAM167A (11723789_a_at) / Fold change /veh FAM167A (11723789_a_at) / RFU FAM26E (11764081_at) / Fold change /veh FAM26E (11764081_at) / RFU ISYNA1 (11749810_s_at) / Fold change /veh ISYNA1 (11749810_s_at) / RFU ACY1 (11761880_at) / Fold change /veh ACY1 (11761880_at) / RFU 11764098_at / Fold change /veh 11764098_at / RFU SAMD14 (11745864_x_at) / Fold change /veh SAMD14 (11745864_x_at) / RFU NPB (11741838_a_at) / Fold change /veh NPB (11741838_a_at) / RFU TMPRSS6 (11731388_a_at) / Fold change /veh TMPRSS6 (11731388_a_at) / RFU KRTAP10-2 (11738614_at) / Fold change /veh KRTAP10-2 (11738614_at) / RFU ARHGAP8 /// PRR5-ARHGAP8 (11727945_x_at) / Fold change /veh ARHGAP8 /// PRR5-ARHGAP8 (11727945_x_at) / RFU KRTAP5-7 /// NADSYN1 (11734609_at) / Fold change /veh KRTAP5-7 /// NADSYN1 (11734609_at) / RFU RASL12 (11751679_a_at) / Fold change /veh RASL12 (11751679_a_at) / RFU CDKN2B (11736163_a_at) / Fold change /veh CDKN2B (11736163_a_at) / RFU PRF1 (11729649_at) / Fold change /veh PRF1 (11729649_at) / RFU, ZNF638 /// ZNF638-IT1 / Fold change vs veh, ZNF638 /// ZNF638-IT1 / RFU, PANK3 / Fold change vs veh, PANK3 / RFU, SH3YL1 / Fold change vs veh, SH3YL1 / RFU, ZEB2 / Fold change vs veh, ZEB2 / RFU, NRIP1 / Fold change vs veh, NRIP1 / RFU, PTTG1IP / Fold change vs veh, PTTG1IP / RFU, CAPN2 / Fold change vs veh, CAPN2 / RFU, MED14 / Fold change vs veh, MED14 / RFU, SNORA58 / Fold change vs veh, SNORA58 / RFU, C1orf63 / Fold change vs veh, C1orf63 / RFU, LRRFIP1 / Fold change vs veh, LRRFIP1 / RFU, NDUFAF7 / Fold change vs veh, NDUFAF7 / RFU, SLC12A2 / Fold change vs veh, SLC12A2 / RFU, IBTK / Fold change vs veh, IBTK / RFU, ESF1 / Fold change vs veh, ESF1 / Fold change vs veh, TMEM50B / RFU, TAOK1 / Fold change vs veh, TAOK1 / RFU, ACBD3 / Fold change vs veh, ACBD3 / RFU, TMA16 / Fold change vs veh, TMA16 / RFU, RWDD3 / Fold change vs veh, RWDD3 / RFU, BCAT1 / Fold change vs veh, BCAT1 / RFU, EDEM3 / Fold change vs veh, EDEM3 / RFU, TMEM33 / Fold change vs veh, TMEM33 / RFU, WDR75 / Fold change vs veh, WDR75 / RFU, AHCTF1 / Fold change vs veh, AHCTF1 / RFU, TFRC / Fold change vs veh, TFRC / RFU, ZDHHC17 / Fold change vs veh, ZDHHC17 / RFU, NOM1 / Fold change vs veh, NOM1 / RFU, ARL8B / Fold change vs veh, ARL8B / RFU, ZBTB11 / Fold change vs veh, ZBTB11 / RFU, TAMM41 / Fold change vs veh, TAMM41 / RFU, KIAA1704 /// LOC100996395 / Fold change vs veh, KIAA1704 /// LOC100996395 / RFU, ING1 / Fold change vs veh, ING1 / RFU, TRMT61B / Fold change vs veh, TRMT61B / RFU, FUBP3 / Fold change vs veh, FUBP3 / RFU, TP53 / Fold change vs veh, TP53 / RFU, TNKS2 / Fold change vs veh, TNKS2 / RFU, ZFP14 / Fold change vs veh, ZFP14 / RFU, ACTR2 / Fold change vs veh, ACTR2 / RFU, PPP3R1 / Fold change vs veh, PPP3R1 / RFU, PIK3R1 / Fold change vs veh, PIK3R1 / RFU, HNRNPA1 / Fold change vs veh, HNRNPA1 / RFU, RNF170 / Fold change vs veh, RNF170 / RFU, ZNF28 / Fold change vs veh, ZNF28 / RFU, RNGTT / Fold change vs veh, RNGTT / RFU, OGT / Fold change vs veh, OGT / RFU, BRD1 / Fold change vs veh, BRD1 / RFU, MARS / Fold change vs veh, MARS / RFU, ZNF655 / Fold change vs veh, ZNF655 / RFU, FAHD1 / Fold change vs veh, FAHD1 / RFU, BDP1 / Fold change vs veh, BDP1 / RFU, LRRCC1 / Fold change vs veh, LRRCC1 / RFU, ARID1A / Fold change vs veh, ARID1A / RFU, ZNF146 / Fold change vs veh, ZNF146 / RFU, ZNF330 / Fold change vs veh, ZNF330 / RFU, GPN3 / Fold change vs veh, GPN3 / RFU, C9orf123 / Fold change vs veh, C9orf123 / RFU, N4BP2L2 / Fold change vs veh, N4BP2L2 / RFU, ARFIP1 / Fold change vs veh, ARFIP1 / RFU, FAM179B / Fold change vs veh, FAM179B / RFU, BCL10 / Fold change vs veh, BCL10 / RFU, UHRF1BP1L / Fold change vs veh, UHRF1BP1L / RFU, BET1 / Fold change vs veh, BET1 / RFU, CNOT2 / Fold change vs veh, CNOT2 / RFU, ZNF268 / Fold change vs veh, ZNF268 / Fold change vs veh, ZNF507 / RFU, DGCR2 / Fold change vs veh, DGCR2 / RFU, WDSUB1 / Fold change vs veh, WDSUB1 / Fold change vs veh, HSP90B1 /// MIR3652 / RFU, ADSS / Fold change vs veh, ADSS / RFU, GK / Fold change vs veh, GK / RFU, ZNF148 / Fold change vs veh, ZNF148 / RFU, TAF9 / Fold change vs veh, TAF9 / RFU, SLC1A5 / Fold change vs veh, SLC1A5 / RFU, SLMO2 / Fold change vs veh, SLMO2 / RFU, ABCC4 / Fold change vs veh, ABCC4 / RFU, LOC101060439 /// RAP1B / Fold change vs veh, LOC101060439 /// RAP1B / RFU, RFX7 / Fold change vs veh, RFX7 / RFU, GTPBP10 / Fold change vs veh, GTPBP10 / RFU, CNEP1R1 / Fold change vs veh, CNEP1R1 / RFU, BIVM-ERCC5 /// ERCC5 / Fold change vs veh, BIVM-ERCC5 /// ERCC5 / RFU, ILF3 / Fold change vs veh, ILF3 / RFU 11762660_at / Fold change /veh 11762660_at / RFU VCAN (11757783_s_at) / Fold change /veh VCAN (11757783_s_at) / RFU DDX43 (11728927_at) / Fold change /veh DDX43 (11728927_at) / RFU KRT8 (11758188_x_at) / Fold change /veh KRT8 (11758188_x_at) / RFU NKD1 (11759106_at) / Fold change /veh NKD1 (11759106_at) / RFU SRD5A1 (11742802_a_at) / Fold change /veh SRD5A1 (11742802_a_at) / RFU TPSAB1 /// TPSB2 (11721975_s_at) / Fold change /veh TPSAB1 /// TPSB2 (11721975_s_at) / RFU GSTM3 (11746129_a_at) / Fold change /veh GSTM3 (11746129_a_at) / RFU IL23R (11737362_x_at) / Fold change /veh IL23R (11737362_x_at) / RFU TMEM51 (11727254_a_at) / Fold change /veh TMEM51 (11727254_a_at) / RFU PIWIL2 (11732686_x_at) / Fold change /veh PIWIL2 (11732686_x_at) / RFU ORM1 (11744905_x_at) / Fold change /veh ORM1 (11744905_x_at) / RFU CCDC152 (11743942_at) / Fold change /veh CCDC152 (11743942_at) / RFU ECM1 (11717891_a_at) / Fold change /veh ECM1 (11717891_a_at) / RFU IL23R (11748794_a_at) / Fold change /veh IL23R (11748794_a_at) / RFU TNFAIP8L3 (11732012_x_at) / Fold change /veh TNFAIP8L3 (11732012_x_at) / RFU MBOAT4 (11741988_at) / Fold change /veh MBOAT4 (11741988_at) / RFU 11764193_at / Fold change /veh 11764193_at / RFU TMEM53 (11763286_at) / Fold change /veh TMEM53 (11763286_at) / RFU MAGEB2 (11727129_at) / Fold change /veh MAGEB2 (11727129_at) / RFU TMEM200A (11744735_a_at) / Fold change /veh TMEM200A (11744735_a_at) / RFU CCDC152 (11751479_a_at) / Fold change /veh CCDC152 (11751479_a_at) / RFU FAM211A (11726209_a_at) / Fold change /veh FAM211A (11726209_a_at) / RFU RGS16 (11746705_a_at) / Fold change /veh RGS16 (11746705_a_at) / RFU VCAN (11755009_s_at) / Fold change /veh VCAN (11755009_s_at) / RFU RHOB (11743442_s_at) / Fold change /veh RHOB (11743442_s_at) / RFU RGS16 (11720943_a_at) / Fold change /veh RGS16 (11720943_a_at) / RFU RGS16 (11720944_at) / Fold change /veh RGS16 (11720944_at) / RFU, VPS4B / Fold change vs veh, VPS4B / RFU, CREB1 / Fold change vs veh, CREB1 / RFU, DNAJC13 / Fold change vs veh, DNAJC13 / RFU, GNAQ / Fold change vs veh, GNAQ / RFU, CDK5R1 / Fold change vs veh, CDK5R1 / RFU, ZRANB3 / Fold change vs veh, ZRANB3 / RFU, CUL4A / Fold change vs veh, CUL4A / RFU, CCNY / Fold change vs veh, CCNY / RFU, UFL1 / Fold change vs veh, UFL1 / RFU, COG3 / Fold change vs veh, COG3 / RFU, DIAPH2 / Fold change vs veh, DIAPH2 / RFU, SKA2 / Fold change vs veh, SKA2 / RFU, AFF3 / Fold change vs veh, AFF3 / RFU, LMF1 / Fold change vs veh, LMF1 / RFU, IPO11 / Fold change vs veh, IPO11 / RFU, DFFB / Fold change vs veh, DFFB / RFU, FOXP1 / Fold change vs veh, FOXP1 / RFU, CARD8 / Fold change vs veh, CARD8 / RFU, STRN3 / Fold change vs veh, STRN3 / RFU, ADK / Fold change vs veh, ADK / RFU, RASSF2 / Fold change vs veh, RASSF2 / RFU, WIPF1 / Fold change vs veh, WIPF1 / RFU, LARP1B / Fold change vs veh, LARP1B / RFU, RASA1 / Fold change vs veh, RASA1 / RFU, RB1 / Fold change vs veh, RB1 / RFU, PPFIA1 / Fold change vs veh, PPFIA1 / RFU, MAT2A / Fold change vs veh, MAT2A / RFU, CCT5 / Fold change vs veh, CCT5 / RFU, WDR92 / Fold change vs veh, WDR92 / RFU, CUX1 / Fold change vs veh, CUX1 / RFU, TTC7A / Fold change vs veh, TTC7A / RFU, TMEM135 / Fold change vs veh, TMEM135 / RFU, DEPTOR / Fold change vs veh, DEPTOR / RFU, CPM / Fold change vs veh, CPM / RFU, DNAJB6 / Fold change vs veh, DNAJB6 / RFU, CACNA2D3 / Fold change vs veh, CACNA2D3 / RFU, DTX4 / Fold change vs veh, DTX4 / RFU, TFCP2 / Fold change vs veh, TFCP2 / RFU, GMCL1 /// GMCL1P1 / Fold change vs veh, GMCL1 /// GMCL1P1 / RFU, AEBP2 / Fold change vs veh, AEBP2 / RFU, SNHG1 /// SNORD22 /// SNORD25 /// SNORD26 /// SNORD27 /// SNORD28 /// SNORD29 /// SNORD31 / Fold change vs veh, SNHG1 /// SNORD22 /// SNORD25 /// SNORD26 /// SNORD27 /// SNORD28 /// SNORD29 /// SNORD31 / Fold change (Aza/veh), C12orf56 (ProbeSet 11735607_a_at) / Fold change (ACY-1035/veh), C12orf56 (ProbeSet 11735607_a_at) / Fold change (Aza/veh), FGFR1OP (ProbeSet 11751329_s_at) / Fold change (ACY-1035/veh), FGFR1OP (ProbeSet 11751329_s_at) / Fold change (Aza/veh), VPS36 (ProbeSet 11739960_a_at) / Fold change (ACY-1035/veh), VPS36 (ProbeSet 11739960_a_at) / RFU SYPL1 (11715823_x_at) / Fold change /veh SYPL1 (11715823_x_at) / RFU IGFBP7 (11715501_s_at) / Fold change /veh IGFBP7 (11715501_s_at) / RFU REEP3 (11722064_at) / Fold change /veh REEP3 (11722064_at) / RFU IGLL1 (11728026_x_at) / Fold change /veh IGLL1 (11728026_x_at): dose or concentration left out as unconfirmed
# Conditions: ProbeSet 11745260_x_at; LIST B
structure (smiles),measurement,value
Nc1ccc(-c2cccs2)cc1NC(=O)c1ccc2c(c1)cc(C1CC1)n2CCN1CCOCC1 [ACY-1035],"RFU, SLC12A2",27.90 RFU
